From article PMC8348110, “A Novel Peptide Derived from the Transmembrane Domain of Romo1 Is a Promising Candidate for Sepsis Treatment and Multidrug-Resistant Bacteria” (International Journal of Molecular Sciences, 2021)
Values after ≈ are worked out from the molar mass of the structure shown. Residues, ends and D or L forms follow the SMILES beside them.

What was measured:
[1] = test system: Pseudomonas aeruginosa ATCC 27853; type: cell-based
Method in brief: (§1)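 Peptides are tested in low-salt phosphate buffer (10 mM, pH 7.4, 1% TS broth) against 5 × 10^5 CFU/mL mid-log cultures for 1 h, over a two-fold range topping at 64 μg/mL. Bactericidal endpoint is the lowest concentration leaving no colonies after overnight plating at 37 °C.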

[2] = test system: Staphylococcus aureus ATCC 29213; type: cell-based
Method in brief: as §1

[3] = test system: Streptococcus pneumoniae NCCP 14585; type: cell-based; conditions: NCCP 14585, 1 h
Method in brief: as §1

[4] = test system: Acinetobacter baumannii ATCC 19606; test: Modified MBC determination; type: cell-based; conditions: Table 2
Description: (§2) The minimum bactericidal concentration (MBC) was determined as previously described with minor modifications. Briefly, bacteria were cultured in the mid-log phase and diluted to 5 × 10^5 colony-forming unit (CFU)/mL in 10 mM sodium phosphate buffer (pH 7.4) with a 1% volume of TS broth. They were incubated for 1 h with various peptides which were two-fold diluted serially from 64 μg/mL to 0 μg/mL concentrations in a 96-well plate. The samples were inoculated TS agar plate and incubated overnight at 37 °C. The value of MBC was determined at the lowest concentrations at which no colonies were identified.
(§3) We used the CFU counting method to measure antibacterial activity, with all bacteria cultured to the mid-log phase in an appropriate broth medium. Bacterial CFUs were counted after overnight culture at 37 °C on TS or LB agar plates. The MBC value and antibacterial activity in blood components were determined as previously described. Mouse and human whole blood were collected and diluted with PBS (pH 7.4) to measure the ex vivo antibacterial activity of AMPR-22. For that test, AMPR-22 (10 μg) was added to each whole blood solution and incubated at 37 °C with shaking at 200 rpm. At each time point, it was incubated with bacteria (1 × 10^3 CFU) for 30 min. Each sample was inoculated on an LB agar plate, and CFU counting was performed. To measure the in vivo activity of AMPR-22, 1 × 10^8 CFU of bacteria were injected into BALB/c mice, and an hour later, 10 mg/kg of the test peptides were injected. Blood samples were collected by tail cut, serially diluted with PBS (pH 7.4), and inoculated on LB-agar plates, followed by CFU counting. To estimate the functional half-life of AMPR-22, 40 mg/kg of each tested peptide were injected into mice. Whole blood sampling was performed by cardiac puncture, and the plasma was isolated by centrifugation (2000× g, 15 min). The isolated plasma was incubated with bacteria (1 × 10^3 CFU) for an hour, and then the CFU counting method was performed.

[5] = test system: Bacillus subtilis ATCC 6633; test: Modified MBC determination; type: cell-based; conditions: Table 2
Description: as §2, §3

[6] = test system: Enterobacter aerogenes ATCC 13048; test: Modified MBC determination; type: cell-based; conditions: Table 2
Description: as §2, §3

[7] = test system: Enterococcus faecalis ATCC 19433; test: Modified MBC determination; type: cell-based; conditions: Table 2
Description: as §2, §3

[8] = test system: Enterococcus faecium ATCC 19434; test: Modified MBC determination; type: cell-based; conditions: Table 2
Description: as §2, §3

[9] = test system: Escherichia coli ATCC 25922; test: Modified MBC determination; type: cell-based; conditions: Table 2
Description: as §2, §3

[10] = test system: Klebsiella pneumoniae ATCC 13883; test: Modified MBC determination; type: cell-based; conditions: Table 2
Description: as §2, §3

[11] = test system: Streptomyces sindenensis ATCC 23963; test: Modified MBC determination; type: cell-based; conditions: Table 2
Description: as §2, §3

[12] = test system: Carbapenem-resistant K. pneumoniae, clinical isolate; type: cell-based, Klebsiella pneumoniae; conditions: 1 h
From the text: Acinetobacter baumannii (ATCC 19606), B. subtilis (ATCC 6633), E. aerogenes (ATCC 13048), E. coli (ATCC 25922), E. faecalis (ATCC 19433), E. faecium (ATCC 19434), K. pneumoniae (ATCC 13883), P. aeruginosa (ATCC 27853), S. aureus (ATCC 29213), S. sindenensis (ATCC 23963), and MRSA (ATCC 33591) were purchased from the American Type Culture Collection (ATCC; Gaithersburg, MD, USA). Streptococcus pneumoniae (NCCP 14585), vancomycin-resistant E. faecium (NCCP 11522), and vancomycin-resistant S. aureus (NCCP 15872) were purchased from the National Culture Collection for Pathogens (NCCP; Cheongju, Korea). The isolation and use of carbapenem-resistant bacterial strains from a patient were approved (2015AN0129) by the Institutional Review Board (IRB) of Korea University Hospital. […]
The minimum bactericidal concentration (MBC) was determined as previously described with minor modifications. […] The value of MBC was determined at the lowest concentrations at which no colonies were identified.
We used the CFU counting method to measure antibacterial activity, with all bacteria cultured to the mid-log phase in an appropriate broth medium. Bacterial CFUs were counted after overnight culture at 37 °C on TS or LB agar plates. The MBC value and antibacterial activity in blood components were determined as previously described. […]

[13] = test system: Vancomycin-resistant E. faecium NCCP 11522; type: cell-based, Enterococcus faecium; conditions: Vancomycin-resistant NCCP 11522, 1 h
Description: as §2
We used the CFU counting method to measure antibacterial activity, with all bacteria cultured to the mid-log phase in an appropriate broth medium. Bacterial CFUs were counted after overnight culture at 37 °C on TS or LB agar plates. The MBC value and antibacterial activity in blood components were determined as previously described. Mouse and human whole blood were collected and diluted with PBS (pH 7.4) to measure the ex vivo antibacterial activity of AMPR-22. For that test, AMPR-22 (10 μg) was added to each whole blood solution and incubated at 37 °C with shaking at 200 rpm. At each time point, it was incubated with bacteria (1 × 10^3 CFU) for 30 min. Each sample was inoculated on an LB agar plate, and CFU counting was performed. […]

human erythrocytes = test: Hemolysis assay; type: cell-based; conditions: 2% erythrocytes in PBS, 1 h 37 °C, absorbance 550 nm; up to / at 256 µg/mL
Description: (§4) For the hemolytic assay, mouse and human whole blood was diluted with PBS (pH 7.4) and centrifuged for 10 min at 500× g. After removing the supernatant and rinsing the pellet three times with PBS, we resuspended the erythrocytes in PBS at 2% volume. The blood solution was added to the solution of peptides with two-fold serial dilution on a 96-well plate. After incubation for an hour at 37 °C, the plate was centrifuged at 2500× g for 10 min, and the absorbance of the supernatant was measured at 550 nm. The PBS-treated sample was the negative control, and the 0.1% Triton X-100–treated sample was the positive control. To measure white blood cell toxicity, mouse and human PBMCs were freshly isolated as previously described, and 70% ethanol (positive control) or AMPR-22 was administered using two-fold diluted concentrations (0 to 256 μg/mL) for 30 min. To measure cell death, a LIVE/DEAD® fixable green dead cell stain kit (Thermo Fisher Scientific, Waltham, MS, USA) was used following the manufacturer′s instructions, and flow cytometry was performed using a FACS Canto II (BD Biosciences, CA, USA). The toxicity of AMPR-22 was compared with negative (PBS-treated) and positive controls, and the data were analyzed using FlowJo software (Tree Star, OR, USA).

mouse erythrocytes = test: Hemolysis assay; type: cell-based; conditions: 2% erythrocytes in PBS, 1 h 37 °C, absorbance 550 nm; concentrations up to 256 µg/mL
Description: as §4

## CC[C@H](C)[C@H](NC(=O)CNC(=O)CNC(=O)[C@@H](NC(=O)[C@H](C)NC(=O)[C@H](CCSC)NC(=O)[C@H](Cc1ccccc1)NC(=O)[C@@H](NC(=O)CNC(=O)[C@H](Cc1ccccc1)NC(=O)[C@H](CCCCN)NC(=O)CNC(=O)CNC(=O)[C@H](CCCCN)NC(=O)[C@H](CCCCN)NC(=O)[C@H](CCSC)NC(=O)[C@H](CCSC)NC(=O)[C@H](CCCCN)NC(=O)[C@@H](N)CCCCN)[C@@H](C)O)[C@@H](C)CC)C(=O)N[C@@H](CCCNC(=N)N)C(=O)O [AMPR-22] (H-KKMMKKGGKFGTFMAIGGIR-OH)
[1]; ATCC 27853, 1 h
  MBC Value, P. aeruginosa: 2 µg/mL (≈ 0.915 µM)
[1]; Table 2, ATCC 27853, modified MBC
  MBC Value, Pseudomonas aeruginosa: 2 µg/mL (≈ 0.915 µM)
[2]; ATCC 29213, 1 h, pH 7.4
  MBC Value, S. aureus: 2 µg/mL (≈ 0.915 µM)
[2]; Table 2, ATCC 29213, modified MBC
  MBC Value, Staphylococcus aureus: 2 µg/mL (≈ 0.915 µM)
[3]
  MBC Value, Streptococcus pneumoniae: 4 µg/mL (≈ 1.83 µM)
[4]
  MBC Value, Acinetobacter baumannii: 1 µg/mL (≈ 0.457 µM)
[5]
  MBC Value, Bacillus subtilis: 1 µg/mL (≈ 0.457 µM)
[6]
  MBC Value, Enterobacter aerogenes: 2 µg/mL (≈ 0.915 µM)
[7]
  MBC Value, Enterococcus faecalis: 4 µg/mL (≈ 1.83 µM)
[8]
  MBC Value, Enterococcus faecium: 4 µg/mL (≈ 1.83 µM)
[9]
  MBC Value, Escherichia coli: 1 µg/mL (≈ 0.457 µM)
[10]
  MBC Value, Klebsiella pneumoniae: 1 µg/mL (≈ 0.457 µM)
[11]
  MBC Value, Streptomyces sindenensis: 2 µg/mL (≈ 0.915 µM)
[12]
  MBC Value, Carbapenem-resistant K. pneumoniae: 4 µg/mL (≈ 1.83 µM)
[13]
  MBC Value, Vancomycin-resistant E. faecium: 4 µg/mL (≈ 1.83 µM)
Human erythrocytes
  Hemolytic activity against human erythrocytes: negligible hemolytic activity
Mouse erythrocytes
  Hemolytic activity against mouse erythrocytes: relatively endurable hemolysis properties
